Source: PubChem BioAssay AID493119 (Broad Institute, 2011)
Values joined by “and” are separate entries in the source; they are usually repeats but may differ in a detail not shown here. Identical values can stand only once.

Tested on: V. harveyi MM32 (LuxS-), AI-2-induced luminescence, 5 h
Assay: inhibitors of AI-2-induced luminescence in V. harveyi MM32, dose response, mechanism study for V. harveyi quorum sensing inhibitors, strain MM32 LuxS-null, dry powder, set 2 (AID 493119)

| SMILES | AC50 |
| --- | --- |
| COc1cc(NC(=O)CN2C(=O)NC(c3ccccc3)(c3ccccc3)C2=O)cc(OC)c1 | 1170 nM and 1130 nM |
| CCc1ccc(S(=O)(=O)Nc2ccc(Br)cn2)cc1 | 2000 nM |
| O=C1C=C/C(=C/Br)O1 | 3970 nM |
| Cc1cccc(NS(=O)(=O)c2ccc(Oc3ccccc3)cc2)n1 | 1290 nM and 1610 nM |
| Cc1cccc(NC(=O)c2ccc(Oc3ccccc3)cc2)n1 | 6550 nM |
| C=Cn1c(C(=O)O)ccc1-c1ccc(CC)cc1 | 1720 nM and 1570 nM |
| Cn1cnc(S(=O)(=O)Nc2ccc(OC(F)(F)F)cc2)c1 | 1880 nM and 2280 nM |
